Assay results from article PMC9369442, “Synthetic Peucedanocoumarin IV Prevents α-Synuclein Neurotoxicity in an Animal Model of Parkinson’s Disease” (International Journal of Molecular Sciences, 2022).

System: combinatorial α-synucleinopathy PD mouse model
Test: Sporadic PD mouse model, combinatorial PFF and rAAV-αSyn nigral injection, PCiv diet
Assay type: in vivo
Description: Figure 4 PCiv administration suppresses PFF-induced dopaminergic neurodegeneration, α-synuclein aggregation, and motor dysfunction in vivo. (A) Bradykinesia (slowness of movement) assessed by pole test for control and combinatorial PFF/AAV-αSyn-injected mice with or without PCiv treatment (50 mg PCiv/kg diet for 30 days, n = 5 per group). Control mice are those nigrally injected with PBS and AAV-GFP. (B) Motor coordination of the mice in the experimental group was assessed by an accelerated rotarod test (n = 5 per group). (C) Representative tyrosine hydroxylase (TH) immunohistochemical staining of the ventral midbrains of control and combinatorial α-synucleinopathy-PD mice fed with a PCiv diet (50 mg/kg diet for 30 days) or normal chow diet. (D) Stereological assessment of TH-positive dopaminergic neurons in the substantia nigra pars compacta of the injection side of the indicated mice groups (n = 5 mice per group). (E) Representative immunofluorescence images of pS129-αSyn and TH in the substantia nigra coronal sections of the indicated experimental mice groups. (F) Quantification of relative pS129-αSyn fluorescence intensities in the TH-positive dopamine neurons of the substantia nigra sections from the indicated experimental groups (n = 28 cells from 3 mice per group). The quantified data are expressed as means ± SEMs. Statistical significance was determined by an ANOVA test with Tukey’s post hoc analysis, ** p < 0.01, *** p < 0.001, and **** p < 0.0001. ns = nonsignificant.
All animal experiments were approved by the Ethical Committee of Sungkyunkwan University Animal Care and Use Committee of Gachon University (Approval number: […]2019-06-15-1; GIACUC-R2021006) and were conducted in accordance with all applicable international guidelines. Male C57BL/6N mice (2 months old) were obtained from Orient Bio (Suwon, Korea). The animals were housed in air-controlled rooms with a 12-h dark/light cycle. Mice and rats were provided ad libitum access to diet and water. All efforts were made to minimize animal suffering and the number of animals used in the experiments. A synthetic PCiv diet was supplied to the mice. The PCiv diet administration (50 mg/kg/day for PFF PD mouse models) began on day 0 and was continued for 30 days. Intranigral injection of the rAAV-αSyn and PFF mixture was performed on day 0. Mice brains were prepared for analysis, as described below. To test the therapeutic effects of PCiv, we prepared a diet containing PCiv. To facilitate each mouse consuming 2 mg of PCiv per day, we generated a mixture of 400 mg of PCiv per kg of rodent diet and then supplied it to the mice.
The α-synucleinopathy PD model was created by co-injecting PFF (10 µg; ventral tegmental area: AP, −3.4 mm; ML, −0.5 mm; DV, −4.3 mm) and rAAV-αSyn (AAV serotype 1, 1 µL of titer 5 × 1011 GC/mL; substantia nigra pars compacta: AP, −3.4 mm; ML, −1.3 mm; DV, −4.3 mm) into a 2-month-old C57BL/6N mouse. rAAV-GFP was used as the control. PFF was prepared from pure recombinant human α-synuclein (Proteos, Inc., Kalamazoo, MI, USA) according to a previous report. Before use, sonicated PFFs were evaluated using Western blotting and a functional assay in cortical neuron cultures (pS129-αSyn induction and neurotoxicity). After co-injecting PFF and rAAV-αSyn, PD models were fed a PCiv or normal diet for a month. For stereological analysis, the animals were perfused 1 month after intranigral injection and fixed intracardially with ice-cold PBS. The tissues were post-fixed with 4% paraformaldehyde overnight. The fixed mice brains were cryoprotected in 30% sucrose (wt/vol) in PBS and subsequently processed for immunohistochemistry.
Coronal sections (thickness, 35 µm) of the fixed and cryoprotected brains were cut, including the substantia nigra. […]

[1] = PD mice, PCiv diet 50 mg/kg diet for 30 days

Structure (SMILES): C/C=C(\C)C(=O)O[C@H]1[C@H](OC(C)=O)c2c(ccc3ccc(=O)oc23)OC1(C)C (relative stereo) [PCiv, trans-4′-acetyl-3′-tigloylkhellactone]
- total α-synuclein expression (PBS+AAV-GFP and PFF+AAV-αSyn injection groups, PCiv diet): no alteration
- development of motor impairment (pole and rotarod tests) (PD mice, PCiv diet 50 mg per kg diet, four weeks): almost completely prevented
- dopaminergic neurons (TH-positive, substantia nigra) [1]: marked protection
- α-synuclein aggregation pathology (pS129-αSyn in TH-positive dopamine neurons) [1]: largely blocked
- dopamine neuron viability in control mouse group (control mice (PBS + AAV-GFP), PCiv diet): no effect
- overt toxicity (in cells and in vivo mouse models): did not observe any overt toxicity
